Measurements published in ChEMBL document CHEMBL1681643 (Bioorg Med Chem Lett, 2011).
In brackets after ≈: the same amount, converted by molar mass. Activity calls are given as the source filed them. The rule behind the calls is not given here. Non-standard residues stand in square brackets, D forms with d. Residues, ends and D or L forms follow the SMILES beside them. *: point of attachment. S(CH2)2OCO2(CPT-20-yl) = CC[C@@]1(OC(=O)OCCS*)C(=O)OCc2c1cc1n(c2=O)Cc2cc3ccccc3nc2-1; Ahx = NCCCCCC(=O)O

How the values were obtained:
CHO [1] = experiment: Drug uptake in NK1R overexpressing CHO cells at 10 uM after 30 mins by confocal microscopy; format: ADME, cell-based, Cricetulus griseus; details: chinese hamster, 0.5 h
MDA-MB-231 = experiment: Anticancer activity against NK1R overexpressing human MDA-MB-231 cells assessed as cell viability after 72 hrs by MTT assay; format: functional, cell-based
CHO [2] = experiment: Drug uptake in CHO cells at 10 uM after 30 mins by confocal microscopy; format: ADME, cell-based, Cricetulus griseus; details: chinese hamster, 0.5 h
MCF7 = experiment: Anticancer activity against NK1R overexpressing human MCF7 cells assessed as cell viability after 72 hrs by MTT assay; format: functional, cell-based
U-251 = experiment: Anticancer activity against NK1R overexpressing human U251MG cells assessed as cell viability after 72 hrs by MTT assay; format: functional, cell-based
CHO [3] = experiment: Cytotoxicity against NK1R overexpressing CHO cells assessed as cell viability after 72 hrs by MTT assay; format: functional, cell-based; details: Cricetulus griseus
[4] = Solubility of the compound in phosphate buffer at pH 7.4; format: physicochemical
U-87MG ATCC = experiment: Anticancer activity against NK1R overexpressing human U87MG cells assessed as cell viability after 72 hrs by MTT assay; format: functional, cell-based
CHO [5] = experiment: Cytotoxicity against CHO cells assessed as cell proliferation after 72 hrs by MTT assay; format: cell-based, Cricetulus griseus; details: chinese hamster
CHO [6] = experiment: Cytotoxicity against CHO cells assessed as cell viability after 72 hrs by MTT assay; format: cell-based, Cricetulus griseus; details: chinese hamster

SMILES	Drug uptake (CHO [1])	Activity (MDA-MB-231)	Drug uptake (CHO [2])	Activity (MCF7)	Activity (U-251)	Activity (CHO [3])	solubility [4]	Activity (U-87MG ATCC)	Activity (CHO [5])	Activity (CHO [6])
CC[C@@]1(OC(=O)OCCSSC[C@H](N)C(=O)N[C@@H](CCCNC(=N)N)C(=O)N2CCC[C@H]2C(=O)N[C@@H](CCCCN)C(=O)N2CCC[C@H]2C(=O)N[C@@H](CCC(N)=O)C(=O)N[C@@H](CCC(N)=O)C(=O)N[C@@H](Cc2ccccc2)C(=O)N[C@@H](Cc2ccccc2)C(=O)NCC(=O)N[C@@H](CC(C)C)C(=O)N[C@@H](CCSC)C(N)=O)C(=O)OCc2c1cc1n(c2=O)Cc2cc3ccccc3nc2-1	Active	Dose-dependent effect	Active	Dose-dependent effect	Dose-dependent effect	Active	103 µg/mL (≈ 54.2 µM)	Dose-dependent effect	Not Active	–
CC[C@@]1(OC(=O)OCCSSC[C@H](N)C(=O)NCCCCCC(=O)N[C@@H](CCC(N)=O)C(=O)N[C@@H](Cc2ccccc2)C(=O)N[C@@H](Cc2ccccc2)C(=O)NCC(=O)N[C@@H](CC(C)C)C(=O)N[C@@H](CCSC)C(N)=O)C(=O)OCc2c1cc1n(c2=O)Cc2cc3ccccc3nc2-1 (H-C(S(CH2)2OCO2(CPT-20-yl))[Ahx]QFFGLM-NH2)	Active	Dose-dependent effect	Active	Dose-dependent effect	Dose-dependent effect	Active	8.4 µg/mL (≈ 5.97 µM)	Dose-dependent effect	Not Active	–
CSCC[C@H](NC(=O)[C@H](CC(C)C)NC(=O)CNC(=O)[C@H](Cc1ccccc1)NC(=O)[C@H](Cc1ccccc1)NC(=O)[C@H](CCC(N)=O)NC(=O)CCCCCNC(=O)[C@@H](N)CS)C(N)=O (H-C[Ahx]QFFGLM-NH2)	–	inactive	–	inactive	inactive	–	–	inactive	–	–
CC[C@@]1(O)C(=O)OCc2c1cc1n(c2=O)Cc2cc3ccccc3nc2-1 [CAMPTOTHECIN]	Active	Dose-dependent effect	Active	Dose-dependent effect	Dose-dependent effect	–	2.7 µg/mL (≈ 7.75 µM)	Dose-dependent effect	–	Toxic
